From US20160067241A1, “COMPOSITIONS AND METHODS TO IMPROVE THE THERAPEUTIC BENEFIT OF SUBOPTIMALLY ADMINISTERED CHEMICAL COMPOUNDS INCLUDING SUBSTITUTED NAPHTHALIMIDES SUCH AS AMONAFIDE FOR THE TREATMENT OF IMMUNOLOGICAL, METABOLIC, INFECTIOUS, AND BENIGN OR NEOPLASTIC HYPERPROLIFERATIVE DISEASE CONDITIONS” (priority 2013, published 2016)

Tests used:
[1] = target: glycogen synthase kinase-3β (GSK-3β) (Homo sapiens, UniProt P49841); settings: cited from earlier work
[2] = system: white blood cell count (WBC); settings: patients; cited from earlier work
[3] = system: RIF-1 murine fibrosarcoma; assay: RIF-1 fibrosarcoma tumor growth delay (tumor volume quadrupling time) in mice; assay type: in vivo, Female C3H mice; settings: for enhancement of amonafide activity by sensitizing or potentiating agent: agent given with amonafide
Excerpt: Tables 1 and 2, shown in FIGS. 1 and 2, respectively, show the use of amonafide, alone or in combination with another anti-neoplastic drug, in a tumor model in mice as described below Female C3H mice (Charles River Laboratories, Hollister, Calif.), approximately 3 months old, were used for the study. The average body weight was approximately 25 g. Animals were maintained in isolator cages on a 12-hour light-and-dark cycle. Food and water were available ad libitum. The RIF-1 murine fibrosarcoma cell line was maintained in in vitro culture (Waymouth medium supplemented with 20% fetal bovine serum) at 37° C. in a humidified 5% CO2 incubator. Log-phase RIF-1 cells were trypsinized and harvested from cell culture flasks to yield a concentration of 4×10^6 cells/mL, then injected intradermally in a volume of 50 μL (equivalent to 2×10^5 cells per injection) into both flanks of each mouse. Nine days later, when tumors reached approximately 100 mm^3 in size, the animals were randomized to different treatment groups. The intraperitoneal injection volume was 100 μL. The oral administration volume was 100 μL. For evaluation of tumor growth delay, tumors were measured three times weekly for up to 22 days with Vernier calipers. Tumor volume (cubic millimeters, mm^3) was calculated according to the following formula: V=π/6×D1×D2×D3, where D1, D2, and D3 are perpendicular diameters measured in […]. Tumor volume quadrupling time (TVQT), defined as the time required for a tumor to grow to four times (4×) its initial volume (at the time of treatment), was used as a study endpoint. The TVQT was determined for each treatment group and expressed in days as the mean±standard error (SE). In these tables, “CDDP” is cisplatin, “VBL” is vinblastine, “HHT” is homoharringtonine, “5FU” is 5-fluorouracil, “CPT” is camptothecin, “RA” is rosmarinic acid, and “MGBG” is methylglyoxalbisguanylhydrazone. For solvents and excipients, “Sal” is saline, “NMF” is N-methylformamide, and “PEG400” is polyethylene glycol 400. For routes of administration, “IP” is intraperitoneal, “PO” is oral, “IM” is intramuscular, and “SC” is subcutaneous. In these tables, the use of the “+” symbol means that both drugs were administered at the same time, while the use of the “ ? ” symbol means that the drug to the left of the symbol was administered first, followed by the drug to the right of the symbol; the second drug was administered 30 minutes after the first drug. In the headings for these tables, “Days to 4×” is the number of days it takes the tumors to grow to four times their original size. “T/C” represents the average number of days that it takes the tumors to grow to four times their original size for the specified treatment divided by the number of days that it takes the tumors to grow to four times their original size for the control.

topoisomerase II = settings: Hsiang et al. 1989; cited from earlier work
N-acetyltransferase NAT2 = target: T1, N-acetyltransferase NAT2 (Homo sapiens, UniProt P11245); settings: cited from earlier work
T1 sequence (P11245 1-290): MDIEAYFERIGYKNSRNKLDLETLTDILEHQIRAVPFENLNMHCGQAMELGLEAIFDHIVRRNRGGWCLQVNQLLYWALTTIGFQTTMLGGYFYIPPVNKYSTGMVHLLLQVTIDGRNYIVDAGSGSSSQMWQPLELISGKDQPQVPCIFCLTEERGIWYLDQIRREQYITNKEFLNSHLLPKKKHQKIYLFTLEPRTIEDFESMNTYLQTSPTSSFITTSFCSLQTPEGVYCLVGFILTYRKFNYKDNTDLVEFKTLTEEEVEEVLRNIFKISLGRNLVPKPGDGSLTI

glycogen synthase kinase-3β (GSK-3β), sequence (P49841 whole entry, species assumed): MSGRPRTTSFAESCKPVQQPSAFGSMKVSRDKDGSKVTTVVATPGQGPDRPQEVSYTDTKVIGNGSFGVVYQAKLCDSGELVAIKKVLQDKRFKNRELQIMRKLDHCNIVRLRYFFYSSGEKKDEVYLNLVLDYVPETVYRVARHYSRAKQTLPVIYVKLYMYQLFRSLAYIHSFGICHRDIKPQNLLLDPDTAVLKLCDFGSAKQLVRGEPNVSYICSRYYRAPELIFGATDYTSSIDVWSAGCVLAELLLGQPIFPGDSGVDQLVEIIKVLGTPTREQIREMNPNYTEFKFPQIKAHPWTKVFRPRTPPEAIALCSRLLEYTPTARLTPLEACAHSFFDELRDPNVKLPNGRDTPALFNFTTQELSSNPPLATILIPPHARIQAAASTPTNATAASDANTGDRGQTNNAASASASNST

For CN1C(=O)/C(=C2/C(=O)Nc3ccccc32)c2ccccc21 [Meisoindigo], the “concentration for inhibition of GSK-3β” value [1] is given as 5 to 50 nM.
In the case of CC(=O)Nc1cc2c3c(cccc3c1)C(=O)N(CCN(C)C)C2=O [acetyl amonafide], the “impact on white blood cell count” value [2] is given as “induce leukocytopenia and, in particular, granulocytopenia”.
For CN(C)CCN1C(=O)c2cccc3cc(N)cc(c23)C1=O [amonafide, 5-amino-2-[2-(dimethylamino)ethyl]-1H-benzo[de]isoquinoline-1,3(2H)-dione], the “effect on tumor growth” value ([3]; RIF-1 tumors in C3H mice, alone or in combination with another anti-neoplastic drug) was “significant effect on tumor growth”, the “combination effect with another anti-neoplastic drug” value ([3]; amonafide administered together with another anti-neoplastic drug) was “evidence of synergism” and the “enhancement of antitumor effects of other drugs (chemosensitizer or chemopotentiator)” value ([3]; amonafide combined with a second drug) was “enhanced the antitumor effects of cisplatin, 5-fluorouracil, homoharringtonine, vinblastine, camptothecin, methylglyoxalbisguanylhydrazone, and cytarabine”. For the same molecule, the “antiproliferative activity by route” value ([3]; direct systemic (intraperitoneal) administration or oral route) was “active antiproliferative agent”, the activity by schedule ([3]; single administration or multiple oral doses) was “active after a single administration or given as multiple doses orally” and the “promotion of topoisomerase II-mediated DNA cleavage” value (topoisomerase II) was “promote topoisomerase II-mediated DNA cleavage”. For the same molecule, the “metabolism by NAT2” value (N-acetyltransferase NAT2) was “converted to an active metabolite by way of the N-acetyltransferase NAT2”.
For COc1ccc2cc3[n+](cc2c1OC)CCc1cc2c(cc1-3)OCO2 [berberine], the “enhancement of amonafide activity by sensitizing or potentiating agent” value [3] was “enhances amonafide activity”.
With NC(=O)c1cccnc1 [nicotinamide] the “enhancement of amonafide activity by sensitizing or potentiating agent” value [3] was “enhances amonafide activity”.
